The source of these data is patent US5830881A, “L-2'3',dideoxy nucleoside analogs as anti-hepatitus B (HBV) agents” (priority 1996, dated 1998).

Like-named read-outs stand apart in the source and are kept apart here.

Data set [1] concerns human immunodeficiency virus (HIV). As to conditions: in words, literature, cited from earlier work.
In data set [2] the test system is Hepatitis B virus. The settings on record: in words; literature; cited from earlier work.
Data set [3] deals with mitochondrial DNA. As to conditions: cited from earlier work; for IC50: data from published literature, read-out: Anti-mitochondrial DNA ID50.
The subject of data set [4] is HIV-1. The settings on record: data from published literature; read-out: Anti-HIV ID50; cited from earlier work.
The subject of data set [5] is CEM cells. The settings on record: cited from earlier work; for CC50: data from published literature, 4320 min, read-out: Cytotoxicity ID50.
In data set [6] the test system is HBV. As to conditions: data from published literature; read-out: Anti-HBV ID50; cited from earlier work.
In data set [7] the test system is Hepatitis B viral infections. As to conditions: in words; prior therapy; cited from earlier work.
Data set [8] deals with HBV. Briefly: Anti-HBV effects: viral DNA from secreted particles of the 2.2.15 human hepatoma cell line carrying HBV (Southern analysis). Format: cell-based, Hepatitis B virus. The protocol:
The biological activity of the present compounds was assessed as described by Doong, S-L, et al., Proc. Natl. Acad. Sci. U.S.A 88, 8495-8499 (1991). The human hepatoma cell line carrying the HBV (designated 2.2.15) kindly provided by Dr. G. Acs was used in the study. Price, et al., Proc. Natl. Acad. Sci. U.S.A. 86, 8541 (1989). Briefly, Six day-old cultures were treating with varying concentrations of the drug in the culture medium (Minimum essential medium with Earl's salts and 10% fetal bovine serum). The drug was left in the culture medium for a period of 3 days after which period the medium was aspirated and fresh medium containing the same concentration(s) of the dry was added. At the end of the subsequent 3 day period the culture medium was harvested. The culture medium was processed for obtaining the virions by the polyethylene glycol precipitation method (Doong, et al., supra). Viral DNA thus recovered from the secreted particles was subjected to Southern analysis. Inhibition of the viral replication was determined by the comparison of the viral DNA from drug-treated versus control cultures not treated with the drug.

Data set [9] is described as follows: Cellular toxicity in T-lymphoblastoic cell line (CEM), cell number 3 days post treatment. Format: cell-based. As to conditions: human; CEM cells, 3 days; read-out: Cytotoxicity ID50. Here is the method: (§1) To determine the cellular toxicity of the present compounds, the T-lymphoblastoic cell line (CEM) was used. Cells were subjected to varying concentrations of the drug(s) and cell numbers were determined 3 days post treatment by the method described by Chen, C-H and Cheng, Y-C J. Biol. Chem., 264, 11934 (1989).

Data set [10] concerns CEM cells. Described as above. The class given is cell-based. As to conditions: in words. The protocol: as §1
Data set [11] is described as follows: in vitro. As to conditions: human, cem cells.
In data set [12] the test system is HIV-1. Description: Anti-HIV effects in T-lymphoblastoid cell line MT-2 infected with HIV-1. The settings on record: Human immunodeficiency virus 1, MT2, MT-2 cells, read-out: Anti-HIV ID50. Format: cell-based. The protocol:
Anti-HIV effects were determined using the T-lymphoblastoid cell line, MT-2 infected with the HIV-1 virus. The inhibition was determined by the method of Larder, B. A., et al., Antimicrob. Agents Chemother., 34, 436 (1990).

“2',3'-dideoxy-2',3'-didehydroguanosine [Carbovir]”: the “activity against HIV” value in data set [1] is “significant activity”.

On to `Nc1nc(=O)n([C@@H]2CS[C@H](CO)O2)cc1F` (relative stereo) [(±)5-FSddC], for which the “activity against Hepatitis B virus in culture” value (from here on “activity … in culture”) in [2] is on record as “potent activity”.

With `Nc1ccn([C@@H]2CS[C@H](CO)O2)c(=O)n1` (relative stereo) [(±) SddC, (+) and (-)-2',3'-Dideoxy-3'-thiacytidine], the “activity … in culture” value in data set [2] is listed as “potent inhibitors of Hepatitis B virus”.

With `Nc1ccn([C@H]2CS[C@@H](CO)O2)c(=O)n1` (stereo in doubt) [(-)S-ddC, (-)-2',3'-Dideoxy-3'-thiacytidine], the “activity … in culture” value in data set [2] was “potent activity”. Also, the IC50 in data set [3] was above 50000 nM; in [4], 2000 nM; in [6] it was 10 nM. In addition, the CC50 in data set [5] was 50000 nM.

Regarding `Nc1ccn([C@H]2C=C[C@@H](CO)O2)c(=O)n1` [2',3'-dideoxy-2',3'-didehydrocytidine], in data set [1], the “activity against HIV” value is recorded as “significant activity”.

Consider `[N-]=[N+]=N[C@H]1C[C@H](n2ccc(=O)[nH]c2=O)O[C@@H]1CO` [3'-azido-2',3'-dideoxyuridine], for which the “activity against HIV” value in data set [1] is “significant activity”.

With `Nc1ncnc2c1ncn2[C@H]1C[C@H](F)[C@@H](CO)O1` [3'-fluoro-2',3'-dideoxyadenosine], in [1], the “activity against HIV” value was “significant activity”.

On to `Cc1cn([C@H]2C[C@H](F)[C@@H](CO)O2)c(=O)[nH]c1=O` [3'-fluoro-3'-deoxythymidine], for which, in [1], the “activity against HIV” value is listed as “significant activity”.

Turning to `Cc1cn([C@H]2C[C@H](N=[N+]=[N-])[C@@H](CO)O2)c(=O)[nH]c1=O` [AZT], in data set [7], the “success in treatment of hepatitis” value was “little, if any, success”.

As for `Cc1cn([C@H]2C=C[C@@H](CO)O2)c(=O)[nH]c1=O` [Compound D4T, 3'-deoxy-2',3'-didehydrothymidine], the “activity against HIV” value in data set [1] is “significant activity”.

`OC[C@@H]1CC[C@H](n2cnc3c(O)ncnc32)O1` [DDI, 2',3'-dideoxyinosine]: the “activity against HIV” value in data set [1] is “significant activity”.

On to `Nc1ccn([C@@H]2CC[C@H](CO)O2)c(=O)n1` [L-ddC, 1-(2,3-dideoxy-beta-L-ribofuranosyl)cytosine], for which the IC50 in [8] (Hepatitis B virus, 2.2.15 cells, read-out: Anti-HBV ID50) was 10 nM; in data set [11], above 100000 nM; in [12] it was 8000 nM. Besides, in data set [8] (in words), the “inhibition of HBV DNA replication” value was “efficiently inhibited”. Also, the “activity against HBV” value in data set [8] (in words, relative activity) is given as “several fold higher activity against HBV”. Besides, in data set [9], the CC50 at 72 h was found to be 54000 ± 20000 nM. The cellular effects result in data set [10] was “minimal cellular effects”. Besides, the “cellular cytotoxicity as compared to ddC” value in data set [10] (compared with ddC) is recorded as “considerably less”.

As to `Nc1nc2c(ncn2COCCO)c(=O)[nH]1` [acyclovir], in data set [7], the “success in treatment of hepatitis” value is “little, if any, success”.

In the case of `Nc1ncnc2c1ncn2[C@@H]1O[C@H](CO)[C@@H](O)[C@@H]1O` [adenine arabinoside], the “success in treatment of hepatitis” value in data set [7] is recorded as “limited success”.

Consider `Nc1ncnc2c1ncn2[C@@H]1O[C@H](COP(=O)(O)O)[C@@H](O)[C@@H]1O` [ara-AMP], for which the “success in treatment of hepatitis” value in [7] is on record as “limited success”.

`Nc1ccn([C@H]2CC[C@@H](CO)O2)c(=O)n1` [ddC, 2',3'-dideoxycytidine]: the figures for the IC50 in [3], in data set [4] and in data set [6] were 22 nM, 1000 nM and 2800 nM, respectively. In data set [3] (in words), the “effects on host mitochondrial DNA” value is “significant effects on host mitochonrial DNA”. Moreover, the CC50 in [5] is 10000 nM. In addition, in [5] (in words, compared with L-ddC), the “cytotoxicity compared with L-ddC” value is listed as “much more cytotoxic than L-ddC”. Also, the “activity against HIV” value is “among the most potent inhibitors of HIV” in data set [1] and “significant activity” in data set [1] (listed as DDC).

For the compound `O=C(O)P(=O)(O)O` [foscarnet], in [7], the “success in treatment of hepatitis” value is given as “little, if any, success”.

Turning to interferon alpha, the “success in treatment of hepatitis” value in [7] is “limited success”.
